Assay results reported in patent publication US7647217B2, “Structure of the farnesoid X receptor ligand binding domain and methods of use therefor” (The Salk Institute for Biological Studies, priority 2002, dated 2010).

Columns and labels:
mouse FXR [1] = target: T1, mouse FXR (Mus musculus, UniProt Q60641); test: CV-1 transient transfection assay with natural promoters of FXR targets (hIBABP, hPLTP, hMRP-2); assay type: cell-based; settings: for activation of IBABP promoter: hIBABP promoter; for concentration of maximum efficacy / activity on natural promoters: hIBABP, hPLTP, hMRP-2 promoters
T1 construct: expressed in transfected cells; host or cells: CV-1 (monkey)
T1 sequence (Q60641 1-488): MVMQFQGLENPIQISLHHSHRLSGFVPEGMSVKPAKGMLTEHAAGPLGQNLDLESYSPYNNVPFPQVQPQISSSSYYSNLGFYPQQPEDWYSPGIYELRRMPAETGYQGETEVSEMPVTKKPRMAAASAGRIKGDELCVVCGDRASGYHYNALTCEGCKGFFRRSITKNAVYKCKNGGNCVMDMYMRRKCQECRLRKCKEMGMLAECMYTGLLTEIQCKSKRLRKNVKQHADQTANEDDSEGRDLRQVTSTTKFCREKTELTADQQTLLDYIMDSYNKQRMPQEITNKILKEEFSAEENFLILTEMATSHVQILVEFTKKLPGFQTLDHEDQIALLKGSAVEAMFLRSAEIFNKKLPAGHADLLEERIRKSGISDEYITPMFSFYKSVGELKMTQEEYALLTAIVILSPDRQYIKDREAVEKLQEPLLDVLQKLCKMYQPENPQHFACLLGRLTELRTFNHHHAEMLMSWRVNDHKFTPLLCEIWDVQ
T1 sequence (P19793 1-462 partner): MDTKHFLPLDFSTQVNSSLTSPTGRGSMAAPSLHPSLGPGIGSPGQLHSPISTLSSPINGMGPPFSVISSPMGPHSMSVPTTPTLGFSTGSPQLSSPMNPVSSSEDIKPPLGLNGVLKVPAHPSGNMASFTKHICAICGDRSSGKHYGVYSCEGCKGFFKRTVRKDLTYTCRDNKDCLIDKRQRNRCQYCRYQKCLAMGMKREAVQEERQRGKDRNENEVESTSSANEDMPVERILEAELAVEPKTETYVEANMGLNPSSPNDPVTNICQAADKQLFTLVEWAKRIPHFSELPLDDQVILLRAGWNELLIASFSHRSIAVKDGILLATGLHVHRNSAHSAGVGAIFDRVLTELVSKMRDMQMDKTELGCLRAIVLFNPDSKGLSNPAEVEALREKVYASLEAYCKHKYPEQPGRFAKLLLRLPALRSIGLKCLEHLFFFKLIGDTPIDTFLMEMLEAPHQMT
Protocol: (§1) FIGS. 2A-2F collectively show the results of ligand activation of CV-1 cells co-transfected with FXR constructs pCMX-mFXR and pCMX-hRXR and a luciferase reporter gene containing various promoters as follows: FIG. 2A with a minimal TK promoter, FIG. 2B with a TK-ECRE*6 promoter, FIG. 2C with a TK-ER8*2 promoter, FIG. 2D with HIBABP promoter, FIG. 2E with a hPLTP promoter, or FIG. 2 with a FhMRP-2 promoter.
(§2) For transfection of these constructs, monkey CV-1 HEPG2 and HEK293T cells were grown in DMEM supplemented with 10% FBS, 50 U/ml penicillin G, and 50 μg/ml streptomycin sulfate at 37° C. in 7% CO2. CV-1 cells (60%-70% confluence, 48-well plate) were cotransfected with 16.6 ng of the appropriate expression vector, 100 ng of reporter plasmid, and 100 ng of pCMX-LacZ in 200 μl of DMEM containing 10% FBS by the N-[1-(2,3-dioleoyloxy)propyl]-N,N,N-trimethylammonium methylsulfate (DOTAP)-mediated procedure. After 24 hr, the medium was replaced, and cells were harvested and assayed for luciferase activity 36-48 hr after transfection. The luciferase activity was normalized to the level of β-galactosidase activity. Each transfection was performed in triplicate and repeated at least three times.
For this study, the following gene promoters were used: intestinal bile acid binding protein (IBABP; see, for example, Grober et al. (1999). Identification of a bile acid-responsive element in the human ileal bile acid-binding protein gene. Involvement of the farnesoid X receptor/9-is-retinoic acid receptor heterodimer. J Biol Chem. 274(42), 29749-54>, phospholipid transfer protein (PLTP) (Urizar et al (2000). The farnesoid X-activated receptor mediates bile acid activation of phospholipid transfer protein gene expression. J Biol Chem. 275(50), 39313-7) and multidrug resistance related protein 2 (MRP-2) (Kast et al. (2002), supra), which are all well characterized targets of FXR. The natural promoters of both the IBABP and PLTP genes contain one copy of an inverted repeat with a one base spacing (IR-1) while MRP-2 contains an ER-8 element. […] The most robust activation (28-fold) was seen on the IBABP promoter. Less robust (2-3 fold) but specific activation was observed on the PLTP and MRP-2 promoters.

mouse FXR [2] = target: T1, mouse FXR; test: CV-1 reporter gene assay, mFXR/hRXR with TK minimal, TK-ECRE*6 or TK-ER8*2 luciferase reporter; assay type: cell-based; settings: for activation of ECRE FXRE reporter: CV-1, TK-ECRE*6; for activation of ER-8 FXRE reporter: CV-1, TK-ER8*2; for concentration at which maximal activity is achieved / activity on FXRE reporters: ECRE and ER-8 reporters
Protocol: as §1, §2
The ability of these compounds to activate the receptor in a number of different cell-based reporter gene assays was then determined. […] CV-1 cells were transiently transfected with an expression plasmid for mouse FXR and human RXR with a thymidine kinase (minimal promoter reporter vector containing either no copies or six copies of the ecdysone response element (ECRE), a well-characterized FXR response element (FXRE). In addition, two copies of the recently identified FXRE everted repeat separated by 8 nucleotides (ER-8) was also studied (see, for example, Laffitte et al. (2000). Identification of the DNA binding specificity and potential target genes for the farnesoid X-activated receptor. J Biol. Chem. 275(14), 10638-47; Kast et al. (2002). Regulation of multidrug resistance-associated protein 2 (ABCC2) by the nuclear receptors pregnane X receptor, farnesoid X-activated receptor, and constitutive androstane receptor. J Biol Chem. 277(4), 2908-15).
Similar results were found in a variety of different cell types including liver cells (HEPG2) and kidney cells (HEK 293).

activation of IBABP promoter (mouse FXR [1]) [fold]	concentration of maximum efficacy (mouse FXR [1]) [µM]	activation of ECRE FXRE reporter (mouse FXR [2]) [fold]	activation of ER-8 FXRE reporter (mouse FXR [2]) [fold]	concentration at which maximal activity is achieved (mouse FXR [2]) [µM]	activity on natural promoters (mouse FXR [1])	activity on FXRE reporters (mouse FXR [2])	Structure (SMILES)	activity on minimal TK promoter (mouse FXR [2]; reporter without FXRE)
					little or no activity	little or no activity	COC(=O)/C=C/c1cccc(N(Cc2ccc(-c3ccccc3OC)cc2)C(=O)C(C)C)c1 [SRI-1]	
					little or no activity	little or no activity	COC(=O)/C=C/c1cccc(N(Cc2ccc(-c3ccc(C(C)(C)C)cc3)cc2)C(=O)C(C)C)c1 [SRI-2]	

Continued, molecule first:

Structure (SMILES)	activation of IBABP promoter (mouse FXR [1]) [fold]	concentration of maximum efficacy (mouse FXR [1]) [µM]	activation of ECRE FXRE reporter (mouse FXR [2]) [fold]	activation of ER-8 FXRE reporter (mouse FXR [2]) [fold]	concentration at which maximal activity is achieved (mouse FXR [2]) [µM]	activity on natural promoters (mouse FXR [1])	activity on FXRE reporters (mouse FXR [2])	activity on minimal TK promoter (mouse FXR [2]; reporter without FXRE)
CC(C)c1onc(-c2c(Cl)cccc2Cl)c1COc1ccc(/C=C/c2cccc(C(=O)O)c2)c(Cl)c1 [GW4064, reference compound]	28	1	100	4	1			less than 2 fold
COC(=O)/C=C/c1cccc(N(Cc2ccc(-c3ccc(N(C)C)cc3)cc2)C(=O)C2CCCCC2)c1 [fexaramine]	28	1	100	4	1			
COC(=O)/C=C/c1cccc(N(Cc2ccc(/C=C/c3ccccc3)cc2)C(=O)C2CCCCC2)c1 [fexarene]	28	1	100	4	1			
COC(=O)/C=C/c1cccc(N(Cc2ccc(-c3ccc4c(c3)OCO4)cc2)C(=O)C2CCCCC2)c1 [fexarine]	28	1	100	4	1			
